Data as given in US20150038430A1, “THERAPEUTIC PEPTIDOMIMETIC MACROCYCLES” (AILERON Therapeutics, Inc., priority 2008, published 2015).
Numbered stars: 1 amine (or outer) side, 2 acyl side, 3 side chain; on linkers, the order of the positions; unused ones are H or OH. Bridge positions count the residues as written; N and C are the ends. Square brackets hold non-standard residues; d marks the D form. Peptide text beside a SMILES is read from it. ξ: configuration not given here. ξαMeNle(6-ylidene) = CC(CCCC=[*:3])(N[*:1])C(=O)[*:2]; Nle = CCCC[C@H](N)C(=O)O

Assay: Melting temperature determination by circular dichroism
Format: physicochemical
Settings: 50 μM in ddH2O, CD at 222 nm, 5-95° C.
Method: To assay the effect of macrocycle formation on meltine temperature, peptidomimetic macrocycles or unmodified peptides are dissolved in distilled H2O (e.g. at a final concentration of 50 μM) and the Tm is determined by measuring the change in ellipticity over a temperature range (e.g. 4 to 95° C.) on a spectropolarimeter (e.g., Jasco J-710) using standard parameters (e.g. wavelength 222 nm; step resolution, 0.5 nm; speed, 20 nm/sec; accumulations, 10; response, 1 sec; bandwidth, 1 nm; temperature increase rate: 1° C./min; path length, 0.1 cm).
Lyophilized SP-1 was dissolved in ddH2O to a final concentration of 50 μM. Tm was determined by measuring the circular dichroism (CD) spectra in a Jasco-810 spectropolarimeter at a fixed wavelength of 222 nm between the temperatures of 5-95° C. The following parameters were used for the measurement: data pitch, 0.1° C.; bandwidth, 1 nm and path length, 0.1 cm averaging the signal for 16 seconds.

In the case of `CCCC[C@H](NC(=O)C1(C)CCCC=CCCCC(C)(NC(=O)[C@H](C)NC(=O)[C@H](CC(C)C)NC(=O)[C@H](Cc2c[nH]cn2)NC(=O)[C@H](CCCNC(=N)N)NC(=O)[C@H](C)NC(=O)[C@@H](NC(=O)[C@H](CC(N)=O)NC(=O)[C@H](CCCNC(=N)N)NC(=O)[C@@H](NC(=O)[C@@H](NC(=O)[C@H](CC(=O)O)NC(C)=O)[C@@H](C)CC)[C@@H](C)CC)[C@@H](C)CC)C(=O)N[C@@H](C(C)C)C(=O)NCC(=O)N[C@@H](CC(=O)O)C(=O)N1)C(=O)N[C@@H](CC(=O)O)C(=O)N[C@@H](CCCNC(=N)N)C(=O)N[C@@H](CO)C(=O)N[C@H](C(N)=O)[C@@H](C)CC` (stereo partly shown) [SP-1] (Ac-DIIRNIARHLA[ξαMeNle(6-ylidene)]VGD[ξαMeNle(6-ylidene)][Nle]DRSI-NH2; staple 12-16), the “temperature up to which helical conformation is maintained” value is reported as “up to 64 °C”.
